The values below are quoted from earlier work in PubChem BioAssay AID1259409 (Chemical Carcinogenesis Research Information System (CCRIS), 2018).

In this data set the test system is rodent chemically induced tumor inhibition, incidence and multiplicity. Nature of the data set: CCRIS tumor inhibitor studies.

The structures appear in SMILES notation.

Take `CC(C)Cc1ccc(C(C)C(=O)O)cc1` (stereo not drawn): the “tumour outcome (control, treated, inhibition, significance)” value by setting is: (Carcinogen: 4-(METHYLNITROSAMINO)-1-(3-PYRIDYL-1-BUTANONE, 64091-91-4, Dose [Inhibitor]: 0, 263 MG/KG IN DIET FOR 25 WK BEGINNING 2 WK PRIOR TO CARCINOGEN TREATMENT (STUDY DURATION: 25 WK), Route [Inhibitor]: ORAL, Species: MOUSE, Strain/Sex: STRAIN-A/FEMALE, Target Tissue: Type of Lesion: FORESTOMACH: TUMOR, Dose [Carcinogen]: 9.1 MG IN DRINKING WATER FOR 7 WK, Promoter: NONE USED) 7/25 (28%), 0/25 (0%), 100%, p<0.01; (Carcinogen: AZOXYMETHANE, 25843-45-2, Dose [Inhibitor]: 0, 400 PPM IN DIET BEGINNING 1 WK PRIOR TO CARCINOGEN TREATMENT FOR DURATION OF STUDY (STUDY DURATION: 54 WK), Route [Inhibitor]: ORAL, Species: RAT, Strain/Sex: F344/MALE, Target Tissue: Type of Lesion: COLON: ADENOCARCINOMA, Dose [Carcinogen]: 15 MG/KG/BW 1/WK FOR 2 WK, Promoter: NONE USED) 58%, 33%, 43%, p<0.05; (Carcinogen: AZOXYMETHANE, 25843-45-2, Dose [Inhibitor]: 0, 200 PPM IN DIET BEGINNING 1 WK PRIOR TO CARCINOGEN TREATMENT FOR DURATION OF STUDY (STUDY DURATION: 54 WK), Route [Inhibitor]: ORAL, Species: RAT, Strain/Sex: F344/MALE, Target Tissue: Type of Lesion: COLON: ADENOCARCINOMA, Dose [Carcinogen]: 15 MG/KG/BW 1/WK FOR 2 WK, Promoter: NONE USED) 58%, 41%, 29%, not calculated; (Carcinogen: AZOXYMETHANE, 25843-45-2, Dose [Inhibitor]: 0, 200 PPM IN DIET BEGINNING 1 WK PRIOR TO CARCINOGEN TREATMENT FOR DURATION OF STUDY (STUDY DURATION: 54 WK), Route [Inhibitor]: ORAL, Species: RAT, Strain/Sex: F344/MALE, Target Tissue: Type of Lesion: COLON: ADENOMA, Dose [Carcinogen]: 15 MG/KG/BW 1/WK FOR 2 WK, Promoter: NONE USED) 6%, 6%, 0%, not calculated. For the same molecule, the outcome (Carcinogen: AZOXYMETHANE, 25843-45-2, Dose [Inhibitor]: 0, 400 PPM IN DIET BEGINNING 1 WK PRIOR TO CARCINOGEN TREATMENT FOR DURATION OF STUDY (STUDY DURATION: 54 WK), Route [Inhibitor]: ORAL, Species: RAT, Strain/Sex: F344/MALE, Target Tissue: Type of Lesion: COLON: ADENOMA, Dose [Carcinogen]: 15 MG/KG/BW 1/WK FOR 2 WK, Promoter: NONE USED) was 6%, 0,%, 100%, not calculated.
`CCCC(=O)C1=C(O)C(Cc2c(O)c(C)c(OC)c(C(=O)CCC)c2O)=C(O)C(C)(C)C1=O`: the “tumour outcome (control, treated, inhibition, significance)” value (Carcinogen: 7,12-DIMETHYLBENZ[A]ANTHRACENE [57-97-6], Dose [Inhibitor]: 85 NMOL/G IN 0.1 ML ACETONE 2X/WK FOR 20 WK 1 HR PRIOR TO EACH PROMOTER DOSE BEGINNING 1 WK POST LAST CARCINOGEN DOSE (S, Route [Inhibitor]: DERMAL, Species: MOUSE, Strain/Sex: ICR/FEMALE, Target Tissue: Type of Lesion: SKIN: PAPILLOMA, Dose [Carcinogen]: 390 NMOL IN 0.1 ML ACETONE ONCE (STUDY DURATION: 21 WK), Promoter: 12-O-TETRADECANOYL-13-ACETATE [16561-29-8]) is reported as 100%, 85%, 15%, not calculated.
On to `CCCCCCCCC/C=C/C=C/C=C/C=C/C=C/C=C/C(=O)OCC`, for which the “tumour outcome (control, treated, inhibition, significance)” value (Carcinogen: AZOXYMETHANE, 25843-45-2, Dose [Inhibitor]: 0, 0.7 ML 2/WK FOR DURATION OF STUDY BEGINNING 1 D PRIOR TO FIRST CARCINOGEN DOSE (STUDY DURATION: 36 WK), Route [Inhibitor]: GAVAGE, Species: RAT, Strain/Sex: F344/MALE, Target Tissue: Type of Lesion: COLON/RECTUM: ADENOMA OR CARCINOMA, Dose [Carcinogen]: 15 MG/KG 1/WK FOR 2 WK, Promoter: NONE USED) is reported as 20/40 (50%), 15/33 (45%), 10%, not significant.
As to `CC(C)[C@@H](C)/C=C/[C@@H](C)[C@H]1CC[C@H]2C3=CC=C4C[C@@H](O)CC[C@]4(C)[C@H]3CC[C@]12C`, the “tumour outcome (control, treated, inhibition, significance)” value (Carcinogen: 7,12-DIMETHYLBENZ[A]ANTHRACENE, 57-97-6, Dose [Inhibitor]: 0, 2 UMOL IN 100 µL ACETONE:DIMETHYLSULFOXIDE (9:1) 2/WK FOR 18 WK APPLIED 30 MIN PRIOR TO EACH PROMOTER DOSE (STUDY DUR, Route [Inhibitor]: DERMAL, Species: MOUSE, Strain/Sex: ICR/FEMALE, Target Tissue: Type of Lesion: SKIN: PAPILLOMA, Dose [Carcinogen]: 50 UG IN 100 µL ACETONE ONCE, Promoter: 12-O-TETRADECANOYLPHORBOL-13-ACETATE, 16561-29-8) is recorded as 100%, 40%, 60%, not calculated.
Turning to `CC1=C[C@H]2O[C@@H]3[C@H](O)[C@@H](O)[C@](C)([C@@]2(CO)[C@H](O)C1=O)[C@]31CO1`, the “tumour outcome (control, treated, inhibition, significance)” value (Dose [Inhibitor]: 0, 6 PPM IN DIET BEGINNING 6 WK POST CARCINOGEN DOSE AND CONTINUING FOR 65 WK (STUDY DURATION: 65 WK), Route [Inhibitor]: ORAL, Species: MOUSE, Strain/Sex: B6C3F1/FEMALE, Target Tissue: Type of Lesion: LIVER: TUMOR, Dose [Carcinogen]: 6 MG/KG ONCE, Promoter: NONE USED) was 8/26 (31%), 3/15 (20%), 35%, not significant; the “tumour outcome (control, treated, inhibition, significance)” value (Dose [Inhibitor]: 0, 6 PPM IN PELLET DIET FOR 1 YR BEGINNING 7 WK POST CARCINOGEN (STUDY DURATION: 60 WK), Route [Inhibitor]: ORAL, Species: MOUSE, Strain/Sex: B6C3F1/FEMALE, Target Tissue: Type of Lesion: LIVER: HEPATOCELLULAR ADENOMA, Dose [Carcinogen]: 6 MG/KG ONCE) is given as 6/26 (23%), 1/15 (7%), 70%, not calculated; the “tumour outcome (control, treated, inhibition, significance)” value (Dose [Inhibitor]: 0, 6 PPM IN PELLET DIET FOR 1 YR BEGINNING 7 WK POST CARCINOGEN (STUDY DURATION: 60 WK), Route [Inhibitor]: ORAL, Species: MOUSE, Strain/Sex: B6C3F1/FEMALE, Target Tissue: Type of Lesion: LIVER: HEPATOCELLULAR TUMOR, Dose [Carcinogen]: 6 MG/KG ONCE) was 8/26 (31%), 3/15 (20%), 35%, not significant; the “tumour outcome (control, treated, inhibition, significance)” value (Dose [Inhibitor]: 0, 12 PPM IN DIET BEGINNING 6 WK POST CARCINOGEN DOSE AND CONTINUING FOR 65 WK (STUDY DURATION: 65 WK), Route [Inhibitor]: ORAL, Species: MOUSE, Strain/Sex: B6C3F1/FEMALE, Target Tissue: Type of Lesion: LIVER: TUMOR, Dose [Carcinogen]: 6 MG/KG ONCE, Promoter: NONE USED) was 8/26 (31%), 0/19 (0%), 100%, p<0.01; the “tumour outcome (control, treated, inhibition, significance)” value (Dose [Inhibitor]: 0, 12 PPM IN DIET BEGINNING 6 WK POST CARCINOGEN DOSE AND CONTINUING FOR 65 WK (STUDY DURATION: 65 WK), Route [Inhibitor]: ORAL, Species: MOUSE, Strain/Sex: B6C3F1/MALE, Target Tissue: Type of Lesion: LIVER: TUMOR, Dose [Carcinogen]: 6 MG/KG ONCE, Promoter: NONE USED) is reported as 19/19 (100%), 18/18 (100%), 0%, not significant; the “tumour outcome (control, treated, inhibition, significance)” value (Dose [Inhibitor]: 0, 12 PPM IN DIET FOR 1 YR BEGINNING 7 WK POST CARCINOGEN (STUDY DURATION: 60 WK), Route [Inhibitor]: ORAL, Species: MOUSE, Strain/Sex: B6C3F1/MALE, Target Tissue: Type of Lesion: LIVER: HEPATOCELLULAR CARCINOMA, Dose [Carcinogen]: 6 MG/KG ONCE) is given as 17/19 (89%), 15/18 (83%), 7%, not calculated. Besides, the “tumour outcome (control, treated, inhibition, significance)” value (Dose [Inhibitor]: 0, 12 PPM IN PELLET DIET FOR 1 YR BEGINNING 7 WK POST CARCINOGEN (STUDY DURATION : 60 WK), Route [Inhibitor]: ORAL, Species: MOUSE, Strain/Sex: B6C3F1/FEMALE, Target Tissue: Type of Lesion: LIVER: HEPATOCELLULAR ADENOMA, Dose [Carcinogen]: 6 MG/KG ONCE) is reported as 6/26 (23%), 0/19 (0%), 100%, not calculated; the “tumour outcome (control, treated, inhibition, significance)” value (Dose [Inhibitor]: 0, 12 PPM IN PELLET DIET FOR 1 YR BEGINNING 7 WK POST CARCINOGEN (STUDY DURATION : 60 WK), Route [Inhibitor]: ORAL, Species: MOUSE, Strain/Sex: B6C3F1/FEMALE, Target Tissue: Type of Lesion: LIVER: HEPATOCELLULAR CARCINOMA, Dose [Carcinogen]: 6 MG/KG ONCE) was 1/26 (4%), 0/19 (0%), 100%, not calculated; the “tumour outcome (control, treated, inhibition, significance)” value (Dose [Inhibitor]: 0, 12 PPM IN PELLET DIET FOR 1 YR BEGINNING 7 WK POST CARCINOGEN (STUDY DURATION : 60 WK), Route [Inhibitor]: ORAL, Species: MOUSE, Strain/Sex: B6C3F1/FEMALE, Target Tissue: Type of Lesion: LIVER: HEPATOCELLULAR TUMOR, Dose [Carcinogen]: 6 MG/KG ONCE) is 8/26 (31%), 0/19 (0%), 100%, p<0.01; the “tumour outcome (control, treated, inhibition, significance)” value (Dose [Inhibitor]: 0, 12 PPM IN PELLET FOR 1 YR BEGINNING 7 WK POST CARCINOGEN (STUDY DURATION: 60 WK), Route [Inhibitor]: ORAL, Species: MOUSE, Strain/Sex: B6C3F1/MALE, Target Tissue: Type of Lesion: LIVER: HEPATOCELLULAR TUMOR, Dose [Carcinogen]: 6 MG/KG ONCE) is 19/19 (100%), 18/18 (100%), 0%, not significant.
